Data taken from patent publication US8192949B2, “Microaggregates including endothelial cells” (priority 2005, dated 2012).

Experiments:
[1] = system: tumor cells in neuroendocrine (pulmonary carcinoid) tumor microclusters; assay: In situ microcapillary viability assay (ISMCVA), fast green/H&E dye exclusion on tumor microclusters; assay type: cell-based, human; settings: microclusters cultured for 96 hours in presence of bevacizumab; FIGS. 3B and 4B
Description: (§1) Solid tumors are minced to pieces smaller than 1 mm (small enough to be aspirated into a standard disposable 10 ml pipette) with high quality curved surgical scissors. Medium in which said tumors may have been transported is reserved, along with the supernatant from the tissue mince. Scissor-minced tumor pieces are digested with collagenase/DNase in RPMI-1640 containing antibiotics and 10% fetal calf serum. Specimens are digested in 50 ml disposable polypropylene centrifuge tubes, assisted by gentle mixing with plastic-coated, magnetic stirring bars over a stirring plate. Specimens are thusly mixed until complete gross digestion has taken place—typically about 2-3 hours for a 1-3 gram specimen. […]
(§2) Viable microaggregates are enriched from medium containing a mixture of microclusters that exist in the minced, digested tissue along with single cells, normal cells, red blood cells, dead cells, and debris by means of “quickspins.” Quickspins consist of repeated very brief centrifugations at 50-500×g, in which the centrifuge tube is first mixed by moderate hand-shaking, placed in a standard, room temperature, preparatory centrifuge, and then accelerated to the desired speed (determined for each centrifuge by empiric trials) and then immediately turned off once the centrifuge has reached the desired speed and then allowed to coast to a stop. […]

[2] = system: capillary-associated cells (mostly endothelial cells) in neuroendocrine (pulmonary carcinoid) tumor microclusters; assay: as above; assay type: cell-based, human; settings: microclusters cultured for 96 hours in presence of bevacizumab; FIGS. 3B and 4B
Description: as §1, §2

**Q.** Which “viability of tumor cells (fast green / H/E staining)” value [1] does the source give for bevacizumab here?
**A.** tumor cells remain viable

**Q.** And the “viability of capillary-associated cells (fast green staining)” value [2]?
**A.** most capillary-associated cells are dead
